As a reminder, the IC50 is the point on the concentration scale where inhibition reaches its midpoint.

In this test the target is T1, c-Met kinase (recombinant c-Met) (Homo sapiens, UniProt P08581).
T1 construct: 0.27 nM recombinant c-Met
T1 sequence (P08581 25-1390): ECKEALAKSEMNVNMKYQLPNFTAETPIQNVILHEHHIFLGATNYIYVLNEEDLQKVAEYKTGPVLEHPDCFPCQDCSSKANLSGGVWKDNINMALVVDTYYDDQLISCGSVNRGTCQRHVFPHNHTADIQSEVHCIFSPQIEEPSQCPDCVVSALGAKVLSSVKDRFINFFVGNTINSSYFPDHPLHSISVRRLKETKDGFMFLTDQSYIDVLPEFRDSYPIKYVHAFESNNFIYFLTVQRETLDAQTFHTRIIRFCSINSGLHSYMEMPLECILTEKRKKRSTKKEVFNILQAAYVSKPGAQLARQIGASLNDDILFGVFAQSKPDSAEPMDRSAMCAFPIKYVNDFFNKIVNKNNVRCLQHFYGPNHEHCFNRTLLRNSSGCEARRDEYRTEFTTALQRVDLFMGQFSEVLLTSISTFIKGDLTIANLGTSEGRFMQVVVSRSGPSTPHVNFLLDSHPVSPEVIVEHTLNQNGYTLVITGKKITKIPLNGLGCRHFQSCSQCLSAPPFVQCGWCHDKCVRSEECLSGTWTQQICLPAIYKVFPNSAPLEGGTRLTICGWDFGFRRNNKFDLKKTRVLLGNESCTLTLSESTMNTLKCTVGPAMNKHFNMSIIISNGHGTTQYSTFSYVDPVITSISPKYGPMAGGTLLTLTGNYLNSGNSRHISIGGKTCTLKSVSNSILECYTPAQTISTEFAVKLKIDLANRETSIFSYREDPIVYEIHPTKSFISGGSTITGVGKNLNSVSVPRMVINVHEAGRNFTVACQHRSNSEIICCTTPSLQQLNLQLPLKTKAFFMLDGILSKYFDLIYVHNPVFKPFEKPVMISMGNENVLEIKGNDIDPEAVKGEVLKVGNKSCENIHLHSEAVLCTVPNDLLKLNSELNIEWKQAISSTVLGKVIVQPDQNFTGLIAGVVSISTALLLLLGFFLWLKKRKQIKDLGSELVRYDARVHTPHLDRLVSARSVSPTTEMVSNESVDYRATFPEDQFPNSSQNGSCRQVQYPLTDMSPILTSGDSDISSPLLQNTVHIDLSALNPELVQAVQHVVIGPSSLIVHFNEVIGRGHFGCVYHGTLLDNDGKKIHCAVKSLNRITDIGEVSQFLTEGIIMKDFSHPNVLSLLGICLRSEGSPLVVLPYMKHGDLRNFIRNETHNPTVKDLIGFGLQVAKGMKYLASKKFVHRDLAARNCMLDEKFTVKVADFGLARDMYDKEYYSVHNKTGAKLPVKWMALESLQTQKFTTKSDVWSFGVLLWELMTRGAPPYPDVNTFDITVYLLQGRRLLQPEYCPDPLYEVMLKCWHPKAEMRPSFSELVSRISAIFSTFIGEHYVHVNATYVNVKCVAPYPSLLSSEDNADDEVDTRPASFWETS
Briefly: In vitro kinase assay I (homogeneous time-resolved fluorescence tyrosine kinase assay). In kind it is biochemical. Put shortly: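 Biotinylated peptide (0.5 μM) phosphorylated by 0.2 nM recombinant c-Met with 50 μM MgATP, 60 min at room temperature, pH 7.4, 5% DMSO. EDTA stop; HTRF read with Eu-anti-phosphotyrosine antibody and streptavidin-APC. IC50 from 4-parameter logistic fit.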
With `CCCOC(=O)Nc1cccc(Cc2nn(-c3cc(F)c(Br)c(F)c3)ccc2=O)c1` [Example 16, propyl (3-{[1-(4-bromo-3,5-difluorophenyl)-4-oxo-1,4-dihydropyridazin-3-yl]methyl}phenyl)carbamate], the IC50 is under 100 nM.

`CCOc1cnc(-c2cccc(C(CCC#N)c3nn(-c4cn[nH]c4)ccc3=O)c2)nc1` (racemic) [Example 665, rac-4-[3-(5-Ethoxypyrimidin-2-yl)phenyl]-4-[4-oxo-1-(1H-pyrazol-4-yl)-1,4-dihydropyridazin-3-yl]butanenitrile]: the IC50 lay in the range of 100 to 1000 nM.

With `Cn1cc(-n2ccc(=O)c(Cc3cccc(NC(=O)OCCO)c3)n2)cn1` [Example 630, 2-Hydroxyethyl(3-{[1-(1-methyl-1H-pyrazol-4-yl)-4-oxo-1,4-dihydropyridazin-3-yl]methyl}phenyl)carbamate], the IC50 was under 100 nM.

Turning to `Cn1cc(-n2ccc(=O)c(Cc3cccc(-c4ncn(CC(F)(F)CN5CCOCC5)n4)c3)n2)cn1` [Example 712, 3-{3-[1-(2,2-difluoro-3-morpholin-4-ylpropyl)-1H-1,2,4-triazol-3-yl]benzyl}-1-(1-methyl-1H-pyrazol-4-yl)pyridazin-4(1H)-one], the concentration for half-maximal inhibition (IC50) was under 100 nM.

Regarding `O=c1ccn(-c2ccc(F)c(F)c2)nc1Cc1cccc(-c2ncc(OC3CCOC3)cn2)c1` (racemic) [Example 327, rac-1-(3,4-difluorophenyl)-3-{3-[5-(tetrahydrofuran-3-yloxy)pyrimidin-2-yl]benzyl}pyridazin-4(1H)-one], the IC50 is under 100 nM.

As for `Cn1cc(-n2ccc(=O)c(Cc3cccc(-c4ncc(CN5CCSCC5)cn4)c3)n2)cn1` [Example 428, 1-(1-methyl-1H-pyrazol-4-yl)-3-{3-[5-(thiomorpholin-4-ylmethyl)pyrimidin-2-yl]benzyl}pyridazin-4(1H)-one], the IC50 was under 100 nM.

Turning to `CCOC(=O)Nc1cccc(C(C)c2nn(-c3ccccc3)ccc2=O)c1` (racemic) [Example 651, rac-Ethyl {3-[1-(4-oxo-1-phenyl-1,4-dihydropyridazin-3-yl)ethyl]phenyl}carbamate], the IC50 is 100 to 1000 nM.

For `CC(C)COC(=O)Nc1cccc(Cc2nn(-c3cccc(-c4ccncc4)c3)ccc2=O)c1` [Example 730, 2-methylpropyl (3-{[4-oxo-1-(3-pyridin-4-ylphenyl)-1,4-dihydropyridazin-3-yl]methyl}phenyl) carbarnate], the IC50 lay within 100 to 1000 nM.

As to `CC(c1cccc(-c2ncc(OC(F)F)cn2)c1)c1nn(-c2cnn(C)c2)ccc1=O` (single isomer, unassigned) [Example 210, 3-[(1R or S)-1-{3-[5-(difluoromethoxy)pyrimidin-2-yl]phenyl}ethyl]-1-(1-methyl-1H-pyrazol-4-yl)pyridazin-4(1H)-one], the IC50 was under 100 nM.

As to `O=c1ccn(-c2ccc(Cl)cc2)nc1Cc1ccc2ncccc2c1` [Example 43, 1-(4-chlorophenyl)-3-(quinolin-6-ylmethyl)pyridazin-4(1H)-one], the IC50 was 100 to 1000 nM.

For the compound `O=C(Nc1cccc(Cc2nn(-c3cc(F)cc(F)c3)ccc2=O)c1)OCCOCC(F)(F)F` [Example 595, 2-(2,2,2-trifluoroethoxy)ethyl (3-{[1-(3,5-difluorophenyl)-4-oxo-1,4-dihydropyridazin-3-yl]methyl}phenyl)carbamate], the IC50 is under 100 nM.

On to `Cc1cnc(-c2cccc(Cc3nn(-c4cnn(C)c4)ccc3=O)c2)s1` [Example 19, 1-(1-methyl-1H-pyrazol-4-yl)-3-[3-(5-methyl-1,3-thiazol-2-yl)benzyl]pyridazin-4(1H)-one], for which the IC50 is under 100 nM.

In the case of `O=c1ccn(-c2ccc(F)c(F)c2)nc1Cc1cccc(-c2ncc(OCC3CCOC3)cn2)c1` (single isomer, unassigned) [Example 351, 1-(3,4-difluorophenyl)-3-(3-{5-[(3R or S)-tetrahydrofuran-3-ylmethoxy]pyrimidin-2-yl}benzyl)pyridazin-4(1H)-one], the IC50 was under 100 nM.

With `CCCOC(=O)Nc1cccc(Cc2nn(-c3cc(F)cc(F)c3)ccc2=O)c1` [Example 590, propyl (3-{[1-(3,5-difluorophenyl)-4-oxo-1,4-dihydropyridazin-3-yl]methyl}phenyl)carbamate], the IC50 is under 100 nM.

For the compound `Cn1cc(-n2ccc(=O)c(Cc3cccc(NC(=O)OCC(F)CN)c3)n2)cn1` (racemic) [Example 621, rac-3-amino-2-fluoropropyl (3-{[1-(1-methyl-1H-pyrazol-4-yl)-4-oxo-1,4-dihydropyridazin-3-yl]methyl}phenyl)carbamate], the half-inhibitory concentration (IC50) is under 100 nM.

As to `CCOC(=O)c1coc(-c2cccc(Cc3nn(-c4cnn(C)c4)ccc3=O)c2)n1` [Example 674, ethyl 2-(3-{[1-(1-methyl-1H-pyrazol-4-yl)-4-oxo-1,4-dihydropyridazin-3-yl]methyl}phenyl)-1,3-oxazole-4-carboxylate], the IC50 lay within 1000 to 3000 nM.

Turning to `CCn1cnc(-c2cccc(Cc3nn(-c4cccc(C(N)=O)c4)ccc3=O)c2)n1` [Example 734, 3-{3-[3-(1-Ethyl-1H-1,2,4-triazol-3-yl)benzyl]-4-oxopyridazin-1(4H)-yl}benzamide], the IC50 is under 100 nM.

Take `CC(c1cccc(-c2ncn(C)n2)c1)c1nn(-c2cnn(C)c2)ccc1=O` (single isomer, unassigned) [Example 682, 1-(1-methyl-1H-pyrazol-4-yl)-3-{(1S or R)-1-[3-(1-methyl-1H-1,2,4-triazol-3-yl)phenyl]ethyl} pyridazin-4(1H)-one]: the IC50 was in the range of 1000 to 3000 nM.

On to `CCn1cc(-n2ccc(=O)c(C(C)c3cccc(-c4ncc(OCC5COCCO5)cn4)c3)n2)cn1` (single isomer, unassigned) [Example 299, 3-[(1R or S)-1-{3-[5-(1,4-dioxan-2-ylmethoxy)pyrimidin-2-yl]phenyl}ethyl]-1-(1-ethyl-1H-pyrazol-4-yl)pyriazin-4(1H)-one], for which the IC50 is under 100 nM.

Turning to `O=C(Nc1cccc(Cc2nn(-c3cc(F)c(F)c(F)c3)ccc2=O)c1)OCCCN1CCNCC1` [Example 623, 3-piperazin-1-ylpropyl (3-{[4-oxo-1-(3,4,5-trifluorophenyl)-1,4-dihydropyridazin-3-yl]methyl}phenyl)carbamate], the IC50 was under 100 nM.

Take `COCCOc1cnc(-c2cccc(Cc3nn(-c4cncc(C#N)c4)ccc3=O)c2)nc1` [Example 132, 5-[3-{3-[5-(2-methoxyethoxy)pyrimidin-2-yl]benzyl}-4-oxopyridazin-1(4H)-yl]pyridine-3-carbonitrile]: the IC50 is under 100 nM.

On to `CCOc1cnc(-c2cccc(Cc3nn(-c4cnn(CC(C)(C)O)c4)ccc3=O)c2)nc1` [Example 666, 3-[3-(5-Ethoxypyrimidin-2-yl)benzyl]-1-[1-(2-hydroxy-2-methylpropyl)-1H-pyrazol-4-yl]pyridazin-4(1H)-one], for which the IC50 is under 100 nM.

On to `CCn1cc(-n2ccc(=O)c(Cc3cccc(-c4ncc(OCC5CCNCC5)cn4)c3)n2)cn1` [Example 336, 1-(1-ethyl-1H-pyrazol-4-yl)-3-{3-[5-(piperidin-4-ylmethoxy)pyrimidin-2-yl]benzyl}pyridazin-4(1H)-one], for which the IC50 is under 100 nM.

For the compound `CC(C)CNC(=O)Nc1cccc(Cc2nn(-c3cnn(C)c3)ccc2=O)c1` [Example 491, 1-(2-methylpropyl)-3-(3-{[1-(1-methyl-1H-pyrazol-4-yl)-4-oxo-1,4-dihydropyridazin-3-yl]methyl}phenyl)urea], the IC50 is under 100 nM.

As for `CCn1cc(-n2ccc(=O)c(Cc3cccc(-c4ncc(OCC5(C)COC5)cn4)c3)n2)cn1` [Example 316, 1-(1-ethyl-1H-pyrazol-4-yl)-3-(3-{5-[(3-methyloxetan-3-yl)methoxy]pyrimidin-2-yl}benzyl)pyridazin-4(1H)-one], the IC50 is under 100 nM.

As to `Cn1cc(-n2ccc(=O)c(Cc3cccc(-c4ncc(CO)cn4)c3)n2)cn1` [Example 190, 3-{3-[5-(Hydroxymethyl)pyrimidin-2-yl]benzyl}-1-(1-methyl-1H-pyrazol-4-yl)pyridazin-4(1H)-one], the IC50 is under 100 nM.

On to `CC(c1cccc(-c2ncc(OC(C)C(C)(C)O)cn2)c1)c1nn(-c2cnn(C)c2)ccc1=O` (single isomer, unassigned) [Example 384, 3-{(1R or S)-1-[3-(5-{[(1R or S)-2-hydroxy-1,2-dimethylpropyl]oxy}pyrimidin-2-yl)phenyl]ethyl}-1-(1-methyl-1H-pyrazol-4-yl)pyridazin-4(1H)-one], for which the IC50 was under 100 nM.

For `COCCOc1cnc(-c2cccc(C(CCO)c3nn(-c4cnn(C)c4)ccc3=O)c2)nc1` (racemic) [Example 253, rac-3-(3-Hydroxy-1-{3-[5-(2-methoxyethoxy)pyrimidin-2-yl]phenyl}propyl)-1-(1-methyl-1H-pyrazol-4-yl)pyridazin-4(1H)-one], the 50% inhibitory concentration (IC50) lay within 1000 to 3000 nM.

Consider `O=c1ccn(-c2ccc(F)c(F)c2)nc1Cc1cccc(-c2ncc(OCc3ccccc3)cn2)c1` [Example 124, 3-{3-[5-(benzyloxy)pyrimidin-2-yl]benzyl}-1-(3,4-difluorophenyl)pyridazin-4(1H)-one], for which the IC50 is under 100 nM.

Regarding `CCOC(=O)Nc1cccc(Cc2nn(-c3cccc(O)c3)ccc2=O)c1` [Example 646, Ethyl(3-{[1-(3-hydroxyphenyl)-4-oxo-1,4-dihydropyridazin-3-yl]methyl}phenyl)carbamate], the IC50 is under 100 nM.

For the compound `Cn1cc(-n2ccc(=O)c(Cc3cccc(-c4ncc(C5C=CCO5)cn4)c3)n2)cn1` (racemic) [Example 174, rac-3-{3-[5-(2,5-Dihydrofuran-2-yl)pyrimidin-2-yl]benzyl}-1-(1-methyl-1H-pyrazol-4-yl)pyridazin-4(1H)-one], the half-inhibitory concentration (IC50) is under 100 nM.

On to `Cn1cc(-n2ccc(=O)c(Cc3cccc(-n4cccn4)c3)n2)cn1` [Example 21, 1-(1-methyl-1H-pyrazol-4-yl)-3-[3-(1H-pyrazol-1-yl)benzyl]pyridazin-4(1H)-one], for which the IC50 lay in the range of 1000 to 3000 nM.

Consider `CCn1cc(-n2ccc(=O)c(Cc3cccc(-c4ncc(OCCn5cccn5)cn4)c3)n2)cn1` [Example 315, 1-(1-ethyl-1H-pyrazol-4-yl)-3-(3-{5-[2-(1H-pyrazol-1-yl)ethoxy]pyrimidin-2-yl}benzyl)pyridazin-4(1H)-one], for which the 50% inhibitory concentration (IC50) is under 100 nM.

The values are drawn from patent publication US20120264735A1 (priority 2009, published 2012).
